# From ChEMBL document CHEMBL3988442, “University of Dundee, Small-Polar-MMV Screening Library” (2021)
# Several values for one entry are separate records, joined by “and”; a condition that tells them apart may be missing. Equal values may be shown once.
# What was measured:
# [1] = target: Protein translocase subunit SecA (Escherichia coli (strain K12), UniProt P10408); assay: Assay to Identify E. coli SecA ATPase Inhibitors; assay type: functional
# [2] = target: T1, Arginase-2, mitochondrial (Homo sapiens, UniProt P78540); assay: in vitro enzyme assay to detect the production of urea directly proportional to the activity of Arginase II; assay type: functional
# T1 sequence (P78540 whole entry): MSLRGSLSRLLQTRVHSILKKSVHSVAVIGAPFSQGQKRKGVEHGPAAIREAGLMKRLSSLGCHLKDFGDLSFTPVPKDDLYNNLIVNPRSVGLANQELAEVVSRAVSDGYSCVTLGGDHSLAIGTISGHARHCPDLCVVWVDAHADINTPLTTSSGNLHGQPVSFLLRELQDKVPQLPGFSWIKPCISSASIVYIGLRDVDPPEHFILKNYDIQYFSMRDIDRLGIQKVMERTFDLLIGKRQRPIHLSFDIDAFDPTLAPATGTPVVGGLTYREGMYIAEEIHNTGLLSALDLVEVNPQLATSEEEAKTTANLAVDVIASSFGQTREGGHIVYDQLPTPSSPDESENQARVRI
# [3] = target: Polyketide synthase Pks13 (Mycobacterium tuberculosis (strain ATCC 25618 / H37Rv), UniProt I6X8D2); assay: Mycobacterium tuberculosis Polyketide synthase 13 Thioesterase (PKS13); assay type: functional
# Chain of Polyketide synthase Pks13 (I6X8D2 whole entry): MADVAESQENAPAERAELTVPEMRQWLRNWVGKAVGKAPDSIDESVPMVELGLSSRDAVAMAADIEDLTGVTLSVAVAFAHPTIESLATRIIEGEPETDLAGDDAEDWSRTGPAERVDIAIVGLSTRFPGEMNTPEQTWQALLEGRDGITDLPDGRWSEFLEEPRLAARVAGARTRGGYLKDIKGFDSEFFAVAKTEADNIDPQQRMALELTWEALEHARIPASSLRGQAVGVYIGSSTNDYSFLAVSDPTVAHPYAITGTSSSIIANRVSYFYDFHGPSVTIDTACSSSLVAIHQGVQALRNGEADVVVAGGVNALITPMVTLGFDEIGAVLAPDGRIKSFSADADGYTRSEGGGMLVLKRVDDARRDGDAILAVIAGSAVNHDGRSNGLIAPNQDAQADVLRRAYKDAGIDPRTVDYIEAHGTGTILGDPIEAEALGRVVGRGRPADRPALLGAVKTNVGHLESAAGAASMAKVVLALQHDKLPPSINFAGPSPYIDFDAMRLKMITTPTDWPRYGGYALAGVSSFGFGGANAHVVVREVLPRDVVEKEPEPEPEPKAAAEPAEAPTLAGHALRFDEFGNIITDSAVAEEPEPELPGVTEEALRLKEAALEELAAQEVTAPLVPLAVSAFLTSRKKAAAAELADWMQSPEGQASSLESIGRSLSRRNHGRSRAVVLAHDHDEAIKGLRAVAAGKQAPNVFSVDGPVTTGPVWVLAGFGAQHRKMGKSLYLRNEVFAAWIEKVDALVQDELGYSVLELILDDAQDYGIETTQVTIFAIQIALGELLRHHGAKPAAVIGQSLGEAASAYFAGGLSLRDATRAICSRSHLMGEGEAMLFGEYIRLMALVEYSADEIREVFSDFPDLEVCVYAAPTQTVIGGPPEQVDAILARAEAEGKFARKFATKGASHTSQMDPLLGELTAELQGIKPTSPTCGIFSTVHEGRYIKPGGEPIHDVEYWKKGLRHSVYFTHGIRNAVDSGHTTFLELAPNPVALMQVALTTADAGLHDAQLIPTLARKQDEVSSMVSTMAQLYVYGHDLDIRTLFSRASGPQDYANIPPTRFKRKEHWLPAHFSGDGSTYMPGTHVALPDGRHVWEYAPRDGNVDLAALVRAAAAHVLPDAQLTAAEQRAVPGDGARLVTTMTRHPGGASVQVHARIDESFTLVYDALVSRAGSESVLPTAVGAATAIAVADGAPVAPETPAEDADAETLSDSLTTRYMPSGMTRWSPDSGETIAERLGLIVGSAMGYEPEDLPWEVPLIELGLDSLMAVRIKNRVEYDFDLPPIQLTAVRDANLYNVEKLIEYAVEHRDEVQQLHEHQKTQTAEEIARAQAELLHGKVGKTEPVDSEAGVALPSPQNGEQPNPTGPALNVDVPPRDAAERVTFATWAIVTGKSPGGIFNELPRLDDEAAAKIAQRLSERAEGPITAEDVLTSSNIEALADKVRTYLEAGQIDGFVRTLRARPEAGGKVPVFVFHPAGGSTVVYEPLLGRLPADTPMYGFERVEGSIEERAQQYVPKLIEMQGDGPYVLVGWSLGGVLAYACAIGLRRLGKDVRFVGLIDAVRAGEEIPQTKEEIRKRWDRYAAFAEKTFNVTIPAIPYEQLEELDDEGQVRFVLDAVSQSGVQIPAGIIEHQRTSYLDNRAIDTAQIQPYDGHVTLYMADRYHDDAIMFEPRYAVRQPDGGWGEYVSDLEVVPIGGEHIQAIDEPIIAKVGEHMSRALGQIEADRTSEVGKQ
# Lysine--tRNA ligase = Lysine--tRNA ligase (Plasmodium falciparum (isolate 3D7), UniProt Q8IDJ8); assay: Pf-KRS-1 (Lysyl-RNA Synthetase-1, KRS-1, cytosolic KRS) from Plasmodium falciparum. Inhibitor assay, 384 well plate, luminescence read.; assay type: functional
# Chain of Lysine--tRNA ligase (Q8IDJ8 whole entry): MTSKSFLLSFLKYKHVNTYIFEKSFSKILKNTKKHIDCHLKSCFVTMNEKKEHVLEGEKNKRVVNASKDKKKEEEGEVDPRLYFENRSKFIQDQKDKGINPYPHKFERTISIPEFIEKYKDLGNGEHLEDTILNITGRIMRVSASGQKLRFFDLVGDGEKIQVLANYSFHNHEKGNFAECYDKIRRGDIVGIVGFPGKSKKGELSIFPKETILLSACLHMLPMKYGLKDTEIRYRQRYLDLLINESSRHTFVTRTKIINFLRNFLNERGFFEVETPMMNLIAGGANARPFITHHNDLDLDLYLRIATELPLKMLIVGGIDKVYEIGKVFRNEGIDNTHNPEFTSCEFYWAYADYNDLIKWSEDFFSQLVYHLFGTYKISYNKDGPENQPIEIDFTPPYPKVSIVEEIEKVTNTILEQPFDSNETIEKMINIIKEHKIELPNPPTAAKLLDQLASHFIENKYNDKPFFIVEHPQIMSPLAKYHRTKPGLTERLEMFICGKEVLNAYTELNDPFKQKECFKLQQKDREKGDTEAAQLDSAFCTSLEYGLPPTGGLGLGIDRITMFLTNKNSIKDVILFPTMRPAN
# [4] = target: T2, Coenzyme A biosynthesis bifunctional protein CoaBC (Mycobacterium tuberculosis (strain ATCC 25618 / H37Rv), UniProt P9WNZ1); assay: Biomol Green assay for MtCoaBC inhibitor, OD650 read; assay type: functional
# T2 sequence (P9WNZ1 whole entry): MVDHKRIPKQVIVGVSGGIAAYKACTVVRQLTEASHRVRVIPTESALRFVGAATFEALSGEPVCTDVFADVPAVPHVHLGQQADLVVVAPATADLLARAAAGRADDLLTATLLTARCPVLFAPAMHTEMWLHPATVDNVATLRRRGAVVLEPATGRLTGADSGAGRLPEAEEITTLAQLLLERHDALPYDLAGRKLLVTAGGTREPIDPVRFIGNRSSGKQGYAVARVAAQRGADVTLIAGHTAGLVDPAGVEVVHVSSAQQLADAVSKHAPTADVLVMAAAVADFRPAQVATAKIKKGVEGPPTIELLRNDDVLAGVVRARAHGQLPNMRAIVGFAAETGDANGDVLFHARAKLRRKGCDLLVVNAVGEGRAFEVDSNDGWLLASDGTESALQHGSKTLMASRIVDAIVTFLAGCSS
# [5] = target: Chromo domain-containing protein 1 (Saccharomyces cerevisiae (strain ATCC 204508 / S288c) (Baker's yeast), UniProt P32657); assay: ScCHD-1 Enzyme Inhibition Assay; assay type: functional
# Chain of Chromo domain-containing protein 1 (P32657 whole entry, the tested form may be a part): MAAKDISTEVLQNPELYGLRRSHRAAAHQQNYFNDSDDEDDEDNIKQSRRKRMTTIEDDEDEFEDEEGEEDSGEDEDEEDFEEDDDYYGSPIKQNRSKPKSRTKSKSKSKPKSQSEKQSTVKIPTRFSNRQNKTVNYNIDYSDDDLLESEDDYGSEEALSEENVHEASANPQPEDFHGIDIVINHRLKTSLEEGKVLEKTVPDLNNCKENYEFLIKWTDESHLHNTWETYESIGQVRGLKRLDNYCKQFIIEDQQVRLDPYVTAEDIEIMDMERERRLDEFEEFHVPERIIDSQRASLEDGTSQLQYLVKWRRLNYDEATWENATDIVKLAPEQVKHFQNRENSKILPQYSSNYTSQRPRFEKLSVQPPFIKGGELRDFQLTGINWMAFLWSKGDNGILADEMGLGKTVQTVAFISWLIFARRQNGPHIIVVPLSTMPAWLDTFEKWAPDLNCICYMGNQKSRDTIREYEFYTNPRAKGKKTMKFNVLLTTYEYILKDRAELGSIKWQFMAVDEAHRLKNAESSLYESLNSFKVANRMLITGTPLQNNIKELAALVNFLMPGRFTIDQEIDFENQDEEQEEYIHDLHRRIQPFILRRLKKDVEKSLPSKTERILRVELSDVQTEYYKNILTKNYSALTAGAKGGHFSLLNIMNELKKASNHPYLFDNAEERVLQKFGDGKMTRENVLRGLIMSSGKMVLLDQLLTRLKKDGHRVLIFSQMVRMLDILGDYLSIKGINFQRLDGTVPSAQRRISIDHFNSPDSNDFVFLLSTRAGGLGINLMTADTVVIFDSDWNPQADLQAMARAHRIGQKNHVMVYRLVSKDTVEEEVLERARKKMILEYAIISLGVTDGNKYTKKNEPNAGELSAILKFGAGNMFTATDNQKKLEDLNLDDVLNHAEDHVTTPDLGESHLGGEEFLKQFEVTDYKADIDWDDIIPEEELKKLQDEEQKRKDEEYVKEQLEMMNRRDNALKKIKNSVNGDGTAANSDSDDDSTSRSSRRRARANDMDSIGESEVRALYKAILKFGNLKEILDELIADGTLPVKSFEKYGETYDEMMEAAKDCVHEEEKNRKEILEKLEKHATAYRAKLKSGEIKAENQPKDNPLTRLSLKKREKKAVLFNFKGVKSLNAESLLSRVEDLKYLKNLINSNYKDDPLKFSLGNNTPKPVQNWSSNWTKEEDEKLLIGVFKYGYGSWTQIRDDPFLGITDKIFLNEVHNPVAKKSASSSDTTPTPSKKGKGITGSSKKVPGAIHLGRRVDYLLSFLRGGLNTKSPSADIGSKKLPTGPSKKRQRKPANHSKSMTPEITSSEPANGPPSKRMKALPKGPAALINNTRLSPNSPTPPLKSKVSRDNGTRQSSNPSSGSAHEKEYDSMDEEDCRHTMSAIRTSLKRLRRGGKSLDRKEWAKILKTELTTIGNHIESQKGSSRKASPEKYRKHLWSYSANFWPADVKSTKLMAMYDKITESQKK
# [6] = microbe, parasite or virus in culture; details: Mycobacterium tuberculosis, 96 h, read-out: pIC50 (converted)
# [7] = microbe, parasite or virus in culture; details: Mycobacterium tuberculosis, 72 h, read-out: pIC50 (converted)
# Schistosoma mansoni = assay: High throughput screening of compounds against Schistosoma mansoni motility; assay type: functional; set-up: dose or concentration left out as unconfirmed
# Plasmodium falciparum = assay: Plasmodium falciparum sporozoite viability assay; assay type: functional, organism-based; details: for IC50: Plasmodium falciparum
# Proteasome subunit beta = target: T3, Proteasome subunit beta (Trypanosoma cruzi, UniProt O96673); assay: Trypanosoma cruzi proteasome chymotrypsin-like activity (TcProtChymo) assay.; assay type: functional
# T3 sequence (O96673 whole entry): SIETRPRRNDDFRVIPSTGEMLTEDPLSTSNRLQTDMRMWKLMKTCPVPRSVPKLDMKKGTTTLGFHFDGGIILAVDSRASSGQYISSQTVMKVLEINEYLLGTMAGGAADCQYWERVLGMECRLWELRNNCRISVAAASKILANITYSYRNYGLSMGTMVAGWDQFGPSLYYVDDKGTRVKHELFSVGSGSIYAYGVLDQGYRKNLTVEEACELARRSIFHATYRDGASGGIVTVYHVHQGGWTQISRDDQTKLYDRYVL
# [8] = Trypanosoma cruzi proteasome luciferase counter-screen; assay type: functional, N/A
# [9] = target: T4, Ubiquitin-activating enzyme e1, putative (Leishmania donovani (strain BPK282A1), UniProt E9BSI1); assay: Leishmania donovani Ubiquitin Activating Enzyme (LdE1); assay type: functional
# T4 sequence (E9BSI1 whole entry): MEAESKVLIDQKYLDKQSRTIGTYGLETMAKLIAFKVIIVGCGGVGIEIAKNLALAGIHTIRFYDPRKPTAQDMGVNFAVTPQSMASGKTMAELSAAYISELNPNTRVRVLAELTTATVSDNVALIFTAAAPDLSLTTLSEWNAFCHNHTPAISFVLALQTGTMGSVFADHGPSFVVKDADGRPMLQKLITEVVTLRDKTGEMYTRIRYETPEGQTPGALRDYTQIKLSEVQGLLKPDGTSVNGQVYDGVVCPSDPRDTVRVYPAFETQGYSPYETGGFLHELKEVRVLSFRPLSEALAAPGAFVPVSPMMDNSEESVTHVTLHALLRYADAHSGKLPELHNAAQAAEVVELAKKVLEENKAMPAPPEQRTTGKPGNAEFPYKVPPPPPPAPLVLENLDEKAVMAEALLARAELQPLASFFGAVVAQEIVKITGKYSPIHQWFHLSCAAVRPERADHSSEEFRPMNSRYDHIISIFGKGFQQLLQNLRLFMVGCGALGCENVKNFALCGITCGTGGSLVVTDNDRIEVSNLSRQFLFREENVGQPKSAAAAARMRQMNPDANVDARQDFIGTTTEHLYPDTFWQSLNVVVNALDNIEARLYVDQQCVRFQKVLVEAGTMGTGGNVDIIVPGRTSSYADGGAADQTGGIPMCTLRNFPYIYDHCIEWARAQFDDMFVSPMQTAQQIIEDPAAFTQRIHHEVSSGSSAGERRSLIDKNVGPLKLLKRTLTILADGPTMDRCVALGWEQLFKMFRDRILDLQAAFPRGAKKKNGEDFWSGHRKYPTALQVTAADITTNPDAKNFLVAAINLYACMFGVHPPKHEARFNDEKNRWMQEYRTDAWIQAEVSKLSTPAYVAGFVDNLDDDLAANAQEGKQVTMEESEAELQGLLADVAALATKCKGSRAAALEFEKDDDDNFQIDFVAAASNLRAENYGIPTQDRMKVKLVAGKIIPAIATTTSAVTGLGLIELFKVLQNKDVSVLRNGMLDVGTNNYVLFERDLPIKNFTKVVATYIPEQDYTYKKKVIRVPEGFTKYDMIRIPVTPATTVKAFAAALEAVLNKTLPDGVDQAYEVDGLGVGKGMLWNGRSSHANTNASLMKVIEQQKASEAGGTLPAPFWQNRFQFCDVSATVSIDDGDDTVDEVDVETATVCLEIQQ
# Chain of Protein translocase subunit SecA (P10408 whole entry): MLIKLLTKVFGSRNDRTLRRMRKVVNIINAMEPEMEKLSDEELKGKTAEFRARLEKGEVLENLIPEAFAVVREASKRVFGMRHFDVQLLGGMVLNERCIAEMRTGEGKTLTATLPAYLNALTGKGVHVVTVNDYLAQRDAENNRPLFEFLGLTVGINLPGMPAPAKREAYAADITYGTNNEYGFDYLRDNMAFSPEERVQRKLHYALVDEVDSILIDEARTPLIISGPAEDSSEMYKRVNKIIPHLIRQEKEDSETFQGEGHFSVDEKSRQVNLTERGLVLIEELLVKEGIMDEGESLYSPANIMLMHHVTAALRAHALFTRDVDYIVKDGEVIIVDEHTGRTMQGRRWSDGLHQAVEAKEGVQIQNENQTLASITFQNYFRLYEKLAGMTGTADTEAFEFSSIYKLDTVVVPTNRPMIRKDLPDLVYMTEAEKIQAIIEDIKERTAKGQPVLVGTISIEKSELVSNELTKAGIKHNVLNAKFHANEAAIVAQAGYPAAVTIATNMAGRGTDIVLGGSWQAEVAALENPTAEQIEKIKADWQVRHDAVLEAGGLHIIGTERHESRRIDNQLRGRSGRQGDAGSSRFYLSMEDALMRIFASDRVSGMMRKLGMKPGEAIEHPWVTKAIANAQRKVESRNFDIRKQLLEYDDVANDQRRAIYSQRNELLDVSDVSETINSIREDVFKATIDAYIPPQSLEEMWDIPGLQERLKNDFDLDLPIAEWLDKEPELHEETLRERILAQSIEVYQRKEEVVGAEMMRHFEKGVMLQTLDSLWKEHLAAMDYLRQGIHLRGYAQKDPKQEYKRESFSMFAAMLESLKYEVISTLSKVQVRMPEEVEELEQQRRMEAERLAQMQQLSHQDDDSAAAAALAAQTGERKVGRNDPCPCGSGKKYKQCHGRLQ
SMILES,IC50 [2] [µM],further results
CCc1c(C(=O)NCC2CCS(=O)(=O)C2)cnn1-c1ccc(C)cc1 (stereo not drawn),,IC50 [1]: > 100 µM
CC1=Nc2c(c(=O)[nH]n2C2CCOCC2)C(c2cccc(Br)c2)S1 (stereo not drawn),> 100,
O=C1CSC(c2ccsc2)c2c(n(C3CCOCC3)[nH]c2=O)N1 (stereo not drawn),> 100,
CC1(C)OCC(CNC(=O)c2cnn(-c3cc(Cl)ccc3Cl)c2N)O1 (stereo not drawn),,IC50 [1]: > 100 µM
COc1ccc(-n2ncc(C(=O)NCC3COC(C)(C)O3)c2N)cc1 (stereo not drawn),,IC50 [1]: > 100 µM
COCCNC(=O)c1cn(C(C)(C)C)c2ncccc12,,IC50 [1]: > 100 µM
COCC(C)NC(=O)c1cn(C(C)(C)C)c2ncccc12 (stereo not drawn),,IC50 [1]: > 100 µM
O=C(Cn1ccc2c(Cl)cccc21)N1CCC2(CC1)OCCO2,> 100,
COC(=O)Cn1cccc(S(=O)(=O)N2CCC(C)CC2)c1=O,> 100,IC50 [3]: > 100 µM
O=C(Cn1nc2c(cc1=O)CSCC2)NC(Cc1ccccc1)C(=O)O (stereo not drawn),> 100,
O=c1[nH]c2c(c(=O)n1C1CCCCC1)CCC2Nc1ccccc1Cl (stereo not drawn),> 100,IC50 (Lysine--tRNA ligase): 14 µM
CNC(=O)[C@H]1C[C@@H]2CN(C(=O)c3ccco3)C[C@@H]2N1S(C)(=O)=O,> 100,
CCn1c(NCc2ccco2)nc2c(C)nn(C)c2c1=O,> 100,
O=C(CO)N1CCC(c2cncc(-c3cccc(Cl)c3)n2)CC1,> 100,IC50 [4]: > 30.2 µM
CN(C)c1ncc(CN2CCOC(C(=O)Nc3ccccc3)C2)cn1 (stereo not drawn),> 100,
COc1cccc(CNCc2nnc3n2CC(C(F)(F)F)CC3)c1 (stereo not drawn),> 100,
C[S+]([O-])CCCNC(=O)c1cc(Br)c2c(c1)OCCO2 (stereo not drawn),> 100,
CS(=O)(=O)NCC(=O)N1CCCC1c1noc(C2CC2)n1 (stereo not drawn),> 100,
O=C(COc1cccc(Br)c1)N1CCN(c2nccs2)CC1,> 100,IC50 [5]: > 29.5 µM
CCN(C)c1ccc(C(=O)N(CCOC)Cc2ccccn2)cc1,> 100,
O=C(NCc1ccncc1)N(Cc1ccccc1F)C1CC1,> 100,
Cc1nn(CCO)c(C)c1CNC1CCc2c(Cl)cccc21 (stereo not drawn),> 100,
Cc1cnc(CN(Cc2ccccc2)CC(O)c2cccs2)cn1 (stereo not drawn),> 100,
COc1ccc(-c2nc(CN3CC(n4cc(C)cn4)C3)no2)cc1,> 100,IC50 [6]: 39.7 µM; IC50 [7]: 47 µM
COCCn1ccc2cc(NC(C)=O)ccc21,,IC50 [1]: > 100 µM
Cc1nc(CCNC(=O)N2CCC(Cc3cnn(C)c3)C2)cs1 (stereo not drawn),> 100,

SMILES,IC50 [2] [µM],further results
CC(C)CN1CCC(NC(=O)c2ccc(F)cc2I)CC1,> 100,Percent Effect (Schistosoma mansoni): 28.14%
Cc1cc(CNC(=O)N2CCN(c3nc(C)c(C)s3)CC2)no1,> 100,
CN(Cc1ccccn1)C1COC2(CCN(Cc3cccnc3)CC2)C1 (stereo not drawn),> 100,
COc1ccccc1CN1CCC2(CC1)CC(Oc1ccccn1)CO2 (stereo not drawn),> 100,
Cc1nc(NCC2CC2)nc2c1COCC21CCN(C)C1 (stereo not drawn),> 100,
Cc1ncsc1CCC(=O)N1CCCC[C@H](N(C)C)C1,> 100,
COCc1noc(-c2ccc(N3CCCCC3CO)nc2)n1 (stereo not drawn),,pIC50 (Plasmodium falciparum): 7.545; IC50 (Plasmodium falciparum): 0.0293 µM; IC50 (Proteasome subunit beta): 8.74 µM and 8.62 µM; pIC50 [8]: 4.522 and 4.491
CSc1ccccc1C(C(=O)O)N1CCN(Cc2ccccn2)CC1 (stereo not drawn),> 100,
Cc1[nH]ccc1C(=O)N1CCCC(c2nccn2Cc2cscn2)C1 (stereo not drawn),> 100,
CN1CCCC1c1ccc(C(=O)N2CCc3ccccc3C2)s1 (stereo not drawn),,pIC50 (Plasmodium falciparum): 6.857; IC50 (Plasmodium falciparum): 0.121 µM; IC50 (Proteasome subunit beta): 10.3 µM and 8.37 µM; pIC50 [8]: 4.715 and 4.643
COc1cccc([C@@H]2CN(C(=O)c3ccc(C)cc3O)C[C@H]2C(=O)O)c1,> 100,
COc1ccccc1Oc1ncccc1CNC(=O)C(C)N1CCCC1 (stereo not drawn),> 100,Percent Effect (Schistosoma mansoni): 13.35%
COc1ccc2c(c1)OCC(CNC(=O)c1ccncc1)C2 (stereo not drawn),> 100,IC50 [5]: > 29.5 µM
CN(CCO)C(=O)c1coc(CN2CCN(c3ccccc3F)CC2)n1,> 100,IC50 [5]: > 29.5 µM
CCC(C(=O)NC)N(c1cccc(C)c1)S(C)(=O)=O (stereo not drawn),> 100,
Cc1ccc([C@@H]2CN(S(=O)(=O)N(C)C)C[C@H]2N(C)C)cc1,> 100,
Cc1ccc2c(ccn2CCC(=O)O)c1,,IC50 [1]: > 100 µM
COCc1c(C(=O)NC2CCCC2)nnn1-c1ccc(C)cc1,,IC50 [1]: > 100 µM
CCCc1c(C(=O)NC2CCCC2)nnn1-c1ccc(OC)cc1,,IC50 [1]: > 100 µM
CCn1cc(CN(C)S(=O)(=O)c2cnn(CC)c2C)c(C)n1,,IC50 [1]: > 100 µM
CC(C)c1n[nH]c(C(=O)Nc2cc[nH]n2)c1Br,,pIC50 (Plasmodium falciparum): 7.564; IC50 (Plasmodium falciparum): 0.0186 µM; IC50 (Proteasome subunit beta): 5.88 µM and 6.65 µM; pIC50 [8]: 4.666 and 4.69
Cc1nc(C)c(C(=O)OCCNc2ncccc2C#N)s1,,IC50 [9]: > 100 µM; IC50 (Proteasome subunit beta): 7.22 µM and 8.26 µM; pIC50 [8]: 4.56 and 4.563
CN(C)C(=O)[C@@H]1CCO[C@@H]2CCN(CCc3ccccc3)C[C@@H]21,> 100,IC50 (Lysine--tRNA ligase): > 50.1 µM
O=C(NCc1ccccn1)[C@]12COC[C@H]1CN(C1CCC1)C2,> 100,
COCCN1C[C@@H]2CCCO[C@@H]2[C@H](N(C)Cc2ccco2)C1,> 100,
